Biological target: flavodoxin (Nitratidesulfovibrio vulgaris, UniProt P00323, W140F)
Assay: FMN retained on purification
Assay type: binding
Details: oxidized state; as purified, before FMN removal

Chain of flavodoxin (P00323 whole entry W140F): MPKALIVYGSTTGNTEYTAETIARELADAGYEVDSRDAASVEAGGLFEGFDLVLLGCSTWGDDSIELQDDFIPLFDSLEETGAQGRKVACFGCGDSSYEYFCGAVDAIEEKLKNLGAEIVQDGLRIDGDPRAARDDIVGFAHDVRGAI

**Q.** With `Cc1cc2nc3c(=O)[nH]c(=O)nc-3n(C[C@H](O)[C@H](O)[C@H](O)COP(=O)(O)O)c2cc1C` [FMN] as the molecule, how does the “FMN retained on purification” value read?
**A.** The value was “the two flavodoxin mutants (W60FY98F and W140F) contained the oxidized FMN”.

Reference: article PMC2943414 (Journal of the American Chemical Society, 2010)
